Results: patent publication US4954437A, “Cell encoding recombinant human erythropoietin” (Integrated Genetics, Inc., priority 1986, dated 1990)
Square brackets hold non-standard residues; d marks the D form. Peptide text beside a SMILES is read from it. * marks the point of attachment. Sta = CC(C)C[C@H](N)[C@@H](O)CC(=O)O; Isovaleryl = CC(C)CC(=O)*

What was measured:
[1] = system: proteases that are active at PH5.0; experiment: Protease inhibitors preventing EPO degradation at pH5.0 in 10X concentrated EPO medium, assayed by RIA; format: biochemical
Procedure: (§1) The addition of a dye column to step 1 gives some additional purification and, more importantly, removes contaminating proteases from EPO and consequently allows higher EPO recoveries at the S-Sepharose Fast Flow step. The clarified media was loaded on a Blue Trisacryl-M column (Pharmacia) equilibrated with 10 mM NaPO4 pH6.0, 150 mM NaCl and eluted with a linear salt gradient of 0.15 to 2.5 M NaCl in 10 mM NaPO4 pH6.0 and then flow-dialyzed into 50 mM Na Acetate, pH5.0 containing 15mM NaCl. The recovery of EPO from the Blue Trisacryl column was almost complete and the recovery on the following S-Sepharose Fast Flow column was 86% compared to 60% in example 1. […] This degradation seems to be caused by proteases that are active at PH5.0. The improved yields in step 2 as illustrated in this example can be attributed to the separation of proteases from the EPO protein by the Blue Trisacryl column. (Other commercially available dyes can also be used.)
Protease inhibitors can also be added to the conditioned medium in order to improve EPO yields. Several commercially available protease inhibitors were tested to see if they could prevent EPO degradation at pH5.0. 10X concentrated (Step 1) EPO medium was diluted 1:10 in 50mM Na Acetate, pH5.0 and then incubated at 37° C. with or without protease inhibitors at a concentration of 5 micrograms/ml. […]

[2] = Degradation of EPO incubated at 37° C. under mildly acidic conditions at pH5.0; format: physicochemical; details: 10X concentrated medium or partially purified step 2 material
Procedure: as §1

Polycythemic mouse = Polycythemic mouse assay (in vivo biological assay); details: for biological activity in in vivo assays: purified rEPO from CES9dog conditioned medium
Procedure: (§2) When the cells were confluent, the supernatants were assayed for EPO expression and the cells were counted and frozen. To test the reproducibility and stability of these cell lines, the 21 highest producing cell lines were thawed and rescreened for 24 hours expression levels on a per cell basis. The five highest producers (3CES and 2CEG transformants) were chosen and expanded into roller bottles to test for growth and production properties. Representative 24 hour culture fluids from cell lines CES9dog and CEG4d in T-75 flasks contained 600U/ml and 800U/ml of rEPO as measured by the ^3 H-thy uptake assay using human urinary EPO as a standard and 490 and 540U/ml when measured by the ^59 Fe incorporation assay into rat bone marrow cells in vitro (Goldwasser et al., 1975, Endocrinology 97:315.). These samples were also active in vivo in the Polycythemic mouse assay as described by Cotes et al., 1961, Nature 191:1065.

rat bone marrow cells = experiment: In vitro biological assays (3H-thy uptake assay, 59Fe incorporation into rat bone marrow cells); format: cell-based; details: purified rEPO from CES9dog conditioned medium
Procedure: Foci, representing BPV transformed C127 cells, were detectable 10-14 days after transfection. Supernatants from Plates containing transformants were assayed 17 days after transfection by the ^3 H-thy uptake assay (Krystal 1983, Exp. Hematol., 11/7, 649) and found to contain EPO. 21/2 to 3 weeks after transfection, foci were isolated by the cloning ring method and transferred to T-25 flasks. After the cells reached approximately 20% confluency, the supernatants were tested for EPO production by the ^3 H-thy uptake assay. A total of 76 cell lines (15 CEM, 35 CES and 26 CEG transformants) were transferred into T-75 flasks.
as §2, with “The five highest producers (3CES and 2CEG transformants) were chosen and expanded into roller bottles to test for growth and production properties.” left out, “These samples were also active in vivo in the Polycythemic mouse assay as described by Cotes et al., 1961, Nature 191:1065.” left out

Molecule	effect on EPO immunoactivity at pH5.0 ([1]; 5 micrograms/ml, 50mM Na Acetate pH5.0, 37° C., over 29 hours, RIA)	IC50 (the concentration at which 50% of the proteases are inhibited) ([1]; 10X concentrated medium, pH5.0, 37° C., 25 hours, RIA (FIG. 9))	t1/2 of degradation [2]	activity in vivo in the Polycythemic mouse assay (Polycythemic mouse; 24 hour culture fluids from cell lines CES9dog and CEG4d)	biological activity in in vivo assays (Polycythemic mouse)	biological activity in in vivo assays (Polycythemic mouse; listed as EPO)	biological activity in in vitro assays (rat bone marrow cells)	biological activity in in vitro assays (rat bone marrow cells; listed as EPO)
CC(C)CC(=O)N[C@H](C(=O)N[C@H](C(=O)N[C@@H](CC(C)C)[C@@H](O)CC(=O)N[C@@H](C)C(=O)N[C@@H](CC(C)C)[C@@H](O)CC(=O)O)C(C)C)C(C)C [Pepstatin, pepstatin] (Isovaleryl-VV[Sta]A[Sta]-OH)	significant stabilizing effect	approximately 0.02 ug/ml	–	–	–	–	–	–
rEPO: recombinant human erythropoietin produced by BPV transformed mouse C127 cells, N- and O-glycosylated	–	–	approx. 4 h	active	high biological activity	high potency	high biological activity	high potency
